Assay results: patent US4430343A, “Benzimidazole derivatives, process for the preparation thereof and pharmaceutical composition containing the same” (Kanebo, Ltd., priority 1981, dated 1984)
Counter-ions that a name gives are not always drawn.

Columns and labels:
[1] = test system: histamine-induced lethality; assay: Protecting activity against histamine-induced lethality (method similar to Labell & Tislow); type: in vivo, Hartley strain male guinea pigs; conditions: for protecting activity against histamine-induced lethality in comparison with that of the compounds of the present invention: relative to compounds of the present invention; for ED50: Cavia porcellus, guinea pigs, oral, 1 hour before histamine 1.1 mg/kg into cephalic vein, survival after two hours, probit method
Description: 1. Protecting activity against histamine-induced lethality
(3) Homochlorcyclizine hydrochloride (reference compound)
The test was carried out by a method similar to Labell & Tislow method (cf. J. Pharmacol Exp. Ther., 113, 72, 1955). […] After one hour, histamine (1.1 mg/kg, in a physiological saline solution) was injected to the animals in cephalic vein. After two hours, the number of live guinea pigs was counted, and therefrom ED50 of the compounds was calculated according to probit method.

in vivo = conditions: mouse, ddY male mice, oral, observed one week, Weil's method, read-out: Acute toxicity LD50
Description: The same compounds as used in the above protecting activity against histamine were used.
The LD50 was calculated based on the number of dead mice within one week according to Weil's method.

[2] = test system: hexobarbital-induced sleep; assay: Potentiating effect on hexobarbital-induced sleep in mice; type: in vivo
Excerpt: Besides, the conventional antihistaminics have side-effect such as hypnotic activity.

SMILES	protecting activity against histamine-induced lethality in comparison with that of the compounds of the present invention [1]	ED50 [1]	LD50 at 168 h (in vivo)	potentiating effect on hexobarbital-induced sleep ([2]; 50 mg/kg (p.o.))	potentiating effect on hexobarbital-induced sleep ([2]; 25 mg/kg (p.o.))
CN1CCN(c2nc3ccccc3n2Cc2ccccc2)CC1 [1-benzyl-2-(4-methyl-1-piperazinyl)benzimidazole, reference compound]	about one severals to one tenth or less	–	–	–	–
CN1CCN(c2nc3ccccc3n2C)CC1 [1-methyl-2-(4-methyl-1-piperazinyl)benzimidazole, reference compound]	about one severals to one tenth or less	–	–	–	–
CN1CCN(c2nc3ccccc3[nH]2)CC1 [2-(4-methyl-1-piperazinyl)benzimidazole, reference compound]	about one severals to one tenth or less	–	–	–	–
C#CCOCCn1c(N2CCCN(C)CC2)nc2ccccc21 [Example 1, 1-[2-(propargyloxy)ethyl]-2-(4-methyl-1-homopiperazinyl)benzimidazole difumarate]	–	0.0046 mg/kg	990 mg/kg	–	–
C#CCOCCn1c(N2CCN(C)CC2)nc2ccccc21 [Example 2, 1-[2-(propargyloxy)ethyl]-2-(4-methyl-1-piperazinyl)benzimidazole.3/2fumarate]	–	0.0047 mg/kg	818 mg/kg	did not show such potentiating effect	–
CCOCCn1c(N2CCCN(C)CC2)nc2ccccc21 [Example 3, 1-[2-(ethoxy)ethyl]-2-(4-methyl-1-homopiperazinyl)benzimidazole.difumarate]	–	0.0047 mg/kg	628 mg/kg	did not show such potentiating effect	–
C=CCOCCn1c(N2CCN(C)CC2)nc2ccccc21 [Example 4, 1-[2-(allyloxy)ethyl]-2-(4-methyl-1-piperazinyl)benzimidazole.3/2 fumarate]	–	0.0058 mg/kg	1640 mg/kg	–	–
CCOCCn1c(N2CCN(C)CC2)nc2ccccc21 [Example 5, 1-[2-(ethoxy)ethyl]-2-(4-methyl-1-piperazinyl)benzimidazole.3/2 fumarate]	–	0.007 mg/kg	1490 mg/kg	–	–
C=CCOCCn1c(N2CCCN(C)CC2)nc2ccccc21 [Example 6, 1-[2-(allyloxy)ethyl]-2-(4-methyl-1-homopiperazinyl)benzimidazole difumarate]	–	0.0088 mg/kg	904 mg/kg	–	–
CCCOCCn1c(N2CCCN(C)CC2)nc2ccccc21 [Example 7, 1-[2-(n-propoxy)ethyl]-2-(4-methyl-1-homopiperazinyl)benzimidazole difumarate]	–	0.0095 mg/kg	884 mg/kg	–	–
CCOCCn1c(N2CCNCC2)nc2ccccc21 [Example 8, 1-[2-(ethoxy)ethyl]-2-(1-piperazinyl)benzimidazole.3/2 fumarate]	–	0.011 mg/kg	2220 mg/kg	did not show such potentiating effect	–
CCOCCn1c(N2CCN(CC)CC2)nc2ccccc21 [Example 9, 1-[2-(ethoxy)ethyl]-2-(4-ethyl-1-piperazinyl)benzimidazole.3/2 fumarate]	–	0.013 mg/kg	2640 mg/kg	did not show such potentiating effect	–
CN1CCCN(c2nc3ccccc3n2CCOc2ccccc2)CC1 [Example 10, 1-[2-(phenoxy)ethyl]-2-(4-methyl-1-homopiperazinyl)benzimidazole difumarate]	–	0.014 mg/kg	1010 mg/kg	–	–
CCCOCCn1c(N2CCN(C)CC2)nc2ccccc21 [Example 11, 1-[2-(n-propoxy)ethyl]-2-(4-methyl-1-piperazinyl)benzimidazole.3/2 fumarate]	–	0.015 mg/kg	2300 mg/kg	–	–
CN1CCN(c2nc3ccccc3n2CCOc2ccccc2)CC1 [Example 12, 1-[2-(phenoxy)ethyl]-2-(4-methyl-1-piperazinyl)benzimidazole.3/2 fumarate]	–	0.017 mg/kg	1110 mg/kg	–	–
CN1CCCN(C(c2ccccc2)c2ccc(Cl)cc2)CC1 (stereo not shown) [Homochlorcyclizine hydrochloride, reference compound]	–	0.26 mg/kg	382 mg/kg	–	remarkable potentiating effect
